Test results published in ChEMBL document CHEMBL4043100, “Antitrichomonal activity of δ opioid receptor antagonists, 7-benzylidenenaltrexone derivatives” (Bioorg Med Chem, 2017).
Converted amounts (≈) assume the structure as drawn.

Assays:
Trichomonas vaginalis = assay: Antimicrobial activity against Trichomonas vaginalis after 48 hrs by neutral red staining based invert microscopic analysis; type: functional
Mu-type opioid receptor = Mu-type opioid receptor (Homo sapiens, UniProt P35372); assay: Displacement of [3H]DAMGO from human mu opioid receptor expressed in CHO cell membranes by microbeta scintillation counting analysis
[1] = biological target: Delta-type opioid receptor (Homo sapiens, UniProt P41143); assay: Displacement of [3H]DPDPE from human delta opioid receptor expressed in CHO cell membranes by microbeta scintillation counting analysis
[2] = biological target: Kappa-type opioid receptor (Homo sapiens, UniProt P41145); assay: Displacement of [3H]U-69,593 from human kappa opioid receptor expressed in CHO cell membranes by microbeta scintillation counting analysis
[3] = Antimicrobial activity against Tritrichomonas mobilensis after 48 hrs by neutral red staining based invert microscopic analysis; type: functional

Sequence of Kappa-type opioid receptor (P41145 whole entry): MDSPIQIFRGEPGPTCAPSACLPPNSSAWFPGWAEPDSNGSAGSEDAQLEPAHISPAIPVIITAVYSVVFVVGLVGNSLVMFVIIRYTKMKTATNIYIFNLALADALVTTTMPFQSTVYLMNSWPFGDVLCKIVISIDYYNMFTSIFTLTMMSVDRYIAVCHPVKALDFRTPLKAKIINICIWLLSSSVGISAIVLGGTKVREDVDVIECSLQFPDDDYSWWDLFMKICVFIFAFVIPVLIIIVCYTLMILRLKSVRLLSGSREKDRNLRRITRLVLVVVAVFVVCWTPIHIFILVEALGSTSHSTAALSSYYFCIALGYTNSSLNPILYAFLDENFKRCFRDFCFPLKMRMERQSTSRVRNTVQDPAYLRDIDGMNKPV
Sequence of Mu-type opioid receptor (P35372 whole entry): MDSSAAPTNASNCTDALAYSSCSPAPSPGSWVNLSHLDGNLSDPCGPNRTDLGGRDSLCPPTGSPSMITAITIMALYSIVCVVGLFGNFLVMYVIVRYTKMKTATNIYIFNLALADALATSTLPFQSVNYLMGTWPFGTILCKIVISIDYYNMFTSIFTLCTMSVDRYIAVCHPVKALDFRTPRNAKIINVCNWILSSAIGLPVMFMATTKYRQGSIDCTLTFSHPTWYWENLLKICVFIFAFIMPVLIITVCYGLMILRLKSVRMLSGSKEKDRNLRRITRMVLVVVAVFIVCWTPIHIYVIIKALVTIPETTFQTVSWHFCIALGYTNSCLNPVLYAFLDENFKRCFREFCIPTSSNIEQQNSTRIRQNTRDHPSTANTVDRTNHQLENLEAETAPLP
Sequence of Delta-type opioid receptor (P41143 whole entry): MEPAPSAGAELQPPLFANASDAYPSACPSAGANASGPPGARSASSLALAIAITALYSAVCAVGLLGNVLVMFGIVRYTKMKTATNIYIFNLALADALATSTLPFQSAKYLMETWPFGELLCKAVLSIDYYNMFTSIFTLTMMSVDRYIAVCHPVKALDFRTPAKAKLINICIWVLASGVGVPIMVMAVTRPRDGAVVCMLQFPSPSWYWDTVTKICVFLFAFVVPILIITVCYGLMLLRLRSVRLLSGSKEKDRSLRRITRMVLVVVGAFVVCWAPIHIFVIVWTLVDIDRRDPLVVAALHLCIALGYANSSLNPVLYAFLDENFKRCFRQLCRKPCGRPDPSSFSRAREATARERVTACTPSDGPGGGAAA

Molecule | MIC (Trichomonas vaginalis) [µM] | IC50 (Trichomonas vaginalis) [nM] | Ki (Mu-type opioid receptor; read-out: Ki) [nM] | Ki ([1]; read-out: Ki) [nM] | Ki ([2]; read-out: Ki) [nM] | other results
CN1CC[C@]23Cc4nc5ccccc5cc4C[C@@]2(O)[C@H]1Cc1ccc(O)cc13 | 80 (≈ 29.8 µg/mL) |  |  |  |  | 
O=C1/C(=C/c2ccc(F)cc2)C[C@@]2(O)[C@H]3Cc4ccc(O)c5c4[C@@]2(CCN3CC2CC2)[C@H]1O5 | 20 (≈ 8.95 µg/mL) | 12800 | 20.9 | 34.5 | 108 | 
COc1ccc(/C=C2\C[C@@]3(O)[C@H]4Cc5ccc(O)c6c5[C@@]3(CCN4CC3CC3)[C@@H](O6)C2=O)cc1 | 20 (≈ 9.19 µg/mL) | 14100 | 5.16 | 1.8 | 27.8 | 
CC1(C)SSC(C)(C)[C@H](NC(=O)[C@@H](N)Cc2ccc(O)cc2)C(=O)NCC(=O)N[C@@H](Cc2ccccc2)C(=O)N[C@@H]1C(=O)O | > 320 |  |  |  |  | 
CN(C)c1ccc(/C=C2\C[C@@]3(O)[C@H]4Cc5ccc(O)c6c5[C@@]3(CCN4CC3CC3)[C@@H](O6)C2=O)cc1 | 20 (≈ 9.45 µg/mL) | 13200 | 17.2 | 3.72 | 28.6 | 
O=C1C(Cc2ccccc2)C[C@@]2(O)[C@H]3Cc4ccc(O)c5c4[C@@]2(CCN3CC2CC2)[C@H]1O5 (some centres not stated) | 80 (≈ 34.5 µg/mL) |  |  |  |  | 
O=C1/C(=C/c2ccc(C(F)(F)F)cc2)C[C@@]2(O)[C@H]3Cc4ccc(O)c5c4[C@@]2(CCN3CC2CC2)[C@H]1O5 | 20 (≈ 9.95 µg/mL) | 13700 | 192 | 83.9 | 176 | 
O=C1/C(=C/c2ccccc2Cl)C[C@@]2(O)[C@H]3Cc4ccc(O)c5c4[C@@]2(CCN3CC2CC2)[C@H]1O5 | > 320 |  |  |  |  | 
O=C1/C(=C/c2cccs2)C[C@@]2(O)[C@H]3Cc4ccc(O)c5c4[C@@]2(CCN3CC2CC2)[C@H]1O5 | 40 (≈ 17.4 µg/mL) | 21600 |  |  |  | 
O=C1C(Cc2ccc(F)cc2)C[C@@]2(O)[C@H]3Cc4ccc(O)c5c4[C@@]2(CCN3CC2CC2)[C@H]1O5 (some centres not stated) | > 320 |  |  |  |  | 
COc1ccc(/C=C2\C[C@@]3(O)[C@H]4Cc5ccc(OC)c6c5[C@@]3(CCN4CC3CC3)[C@@H](O6)C2=O)cc1 | 80 (≈ 37.9 µg/mL) |  |  |  |  | 
O=C1/C(=C/c2ccc(Cl)cc2)C[C@@]2(O)[C@H]3Cc4ccc(O)c5c4[C@@]2(CCN3CC2CC2)[C@H]1O5 | 20 (≈ 9.28 µg/mL) | 12700 | 6.13 | 8.22 | 78.6 | 
O=C1/C(=C/c2ccc(Br)cc2)C[C@@]2(O)[C@H]3Cc4ccc(O)c5c4[C@@]2(CCN3CC2CC2)[C@H]1O5 | 20 (≈ 10.2 µg/mL) | 11200 | 5.04 | 4.19 | 70.4 | 
O=C1/C(=C/c2ccccc2Br)C[C@@]2(O)[C@H]3Cc4ccc(O)c5c4[C@@]2(CCN3CC2CC2)[C@H]1O5 | 80 (≈ 40.7 µg/mL) |  |  |  |  | 
O=C1/C(=C/c2cccc(C(F)(F)F)c2)C[C@@]2(O)[C@H]3Cc4ccc(O)c5c4[C@@]2(CCN3CC2CC2)[C@H]1O5 | 80 (≈ 39.8 µg/mL) |  |  |  |  | 
O=C1/C(=C/c2ccccc2C(F)(F)F)C[C@@]2(O)[C@H]3Cc4ccc(O)c5c4[C@@]2(CCN3CC2CC2)[C@H]1O5 | 80 (≈ 39.8 µg/mL) |  |  |  |  | 
O=C1/C(=C/c2cccc(F)c2)C[C@@]2(O)[C@H]3Cc4ccc(O)c5c4[C@@]2(CCN3CC2CC2)[C@H]1O5 | 20 (≈ 8.95 µg/mL) | 14200 | 10.7 | 8.37 | 49 | 
COc1ccc2c3c1O[C@H]1C(=O)/C(=C/c4ccc(F)cc4)C[C@@]4(O)[C@@H](C2)N(CC2CC2)CC[C@]314 | 80 (≈ 36.9 µg/mL) |  |  |  |  | 
O=C1/C(=C/c2c(Cl)cccc2Cl)C[C@@]2(O)[C@H]3Cc4ccc(O)c5c4[C@@]2(CCN3CC2CC2)[C@H]1O5 | > 320 |  |  |  |  | 
COc1cccc(/C=C2\C[C@@]3(O)[C@H]4Cc5ccc(O)c6c5[C@@]3(CCN4CC3CC3)[C@@H](O6)C2=O)c1 | 80 (≈ 36.8 µg/mL) |  |  |  |  | 

Molecule | MIC (Trichomonas vaginalis) [µM] | IC50 (Trichomonas vaginalis) [nM] | Ki (Mu-type opioid receptor; read-out: Ki) [nM] | Ki ([1]; read-out: Ki) [nM] | Ki ([2]; read-out: Ki) [nM] | other results
N#Cc1ccc(/C=C2\C[C@@]3(O)[C@H]4Cc5ccc(O)c6c5[C@@]3(CCN4CC3CC3)[C@@H](O6)C2=O)cc1 | 20 (≈ 9.09 µg/mL) | 13200 | 32.7 | 18.1 | 209 | 
COc1ccccc1/C=C1\C[C@@]2(O)[C@H]3Cc4ccc(O)c5c4[C@@]2(CCN3CC2CC2)[C@@H](O5)C1=O | > 320 |  |  |  |  | 
COc1ccc(CC2C[C@@]3(O)[C@H]4Cc5ccc(O)c6c5[C@@]3(CCN4CC3CC3)[C@@H](O6)C2=O)cc1 (some centres not stated) | > 320 |  |  |  |  | 
COc1ccc2c3c1O[C@H]1C(=O)/C(=C/c4ccccc4)C[C@@]4(O)[C@@H](C2)N(CC2CC2)CC[C@]314 | 80 (≈ 35.5 µg/mL) |  | 499 | 100 | > 1000 | 
O=C1/C(=C/c2ccc(I)cc2)C[C@@]2(O)[C@H]3Cc4ccc(O)c5c4[C@@]2(CCN3CC2CC2)[C@H]1O5 | 20 (≈ 11.1 µg/mL) | 10500 | 19.9 | 2.15 | 126 | MIC [3]: > 320 µM
O=C1/C(=C/c2ccco2)C[C@@]2(O)[C@H]3Cc4ccc(O)c5c4[C@@]2(CCN3CC2CC2)[C@H]1O5 | 160 (≈ 67.1 µg/mL) |  |  |  |  | 
N#Cc1cccc(/C=C2\C[C@@]3(O)[C@H]4Cc5ccc(O)c6c5[C@@]3(CCN4CC3CC3)[C@@H](O6)C2=O)c1 | 40 (≈ 18.2 µg/mL) | 18000 |  |  |  | 
COc1ccc2c3c1O[C@H]1C(=O)C(Cc4ccccc4)C[C@@]4(O)[C@@H](C2)N(CC2CC2)CC[C@]314 (some centres not stated) | > 320 |  |  |  |  | 
O=C1/C(=C/c2ccnc3ccccc23)C[C@@]2(O)[C@H]3Cc4ccc(O)c5c4[C@@]2(CCN3CC2CC2)[C@H]1O5 | 40 (≈ 19.2 µg/mL) | 17200 |  |  |  | 
O=C1/C(=C/c2ccccc2F)C[C@@]2(O)[C@H]3Cc4ccc(O)c5c4[C@@]2(CCN3CC2CC2)[C@H]1O5 | 20 (≈ 8.95 µg/mL) | 18600 | 12.8 | 2.94 | 35.1 | 
COC(=O)/C=C/C(=O)N[C@@H]1CC[C@@]2(O)[C@H]3Cc4ccc(O)c5c4[C@@]2(CCN3CC2CC2)[C@H]1O5 | 80 (≈ 36.4 µg/mL) |  |  |  |  | 
O=C1/C(=C/c2ccccc2)C[C@@]2(O)[C@H]3Cc4ccc(O)c5c4[C@@]2(CCN3CC2CC2)[C@H]1O5 [BNTX] | 40 (≈ 17.2 µg/mL) | 21700 | 11 | 2.81 | 32.8 | MIC [3]: > 320 µM
Cc1ncc([N+](=O)[O-])n1CCO [METRONIDAZOLE] | 10 (≈ 1.71 µg/mL) | 5200 |  |  |  | Ki (Mu-type opioid receptor): Not Active; MIC [3]: 2.5 µM (≈ 0.428 µg/mL); Ki [1]: Not Active; Ki [2]: Not Active
CN(C(=O)/C=C/c1ccoc1)[C@@H]1CC[C@@]2(O)[C@H]3Cc4ccc(O)c5c4[C@@]2(CCN3CC2CC2)[C@H]1O5 [NALFURAFINE] | 80 (≈ 38.1 µg/mL) |  |  |  |  | 
O=C1CC[C@@]2(O)[C@H]3Cc4ccc(O)c5c4[C@@]2(CCN3CC2CC2)[C@H]1O5 [NALTREXONE] | 80 (≈ 27.3 µg/mL) |  |  |  |  | 
Oc1ccc2c3c1O[C@H]1c4oc5ccccc5c4C[C@@]4(O)[C@@H](C2)N(CC2CC2)CC[C@]314 [NALTRIBEN] | 80 (≈ 33.2 µg/mL) |  |  |  |  | 
Oc1ccc2c3c1O[C@H]1c4[nH]c5ccccc5c4C[C@@]4(O)[C@@H](C2)N(CC2CC2)CC[C@]314 [NALTRINDOLE] | 80 (≈ 33.2 µg/mL) |  |  |  |  | 
Oc1ccc2c3c1O[C@H]1c4[nH]c5c(c4C[C@@]4(O)[C@@H](C2)N(CC2CC2)CC[C@]314)C[C@@]1(O)[C@H]2Cc3ccc(O)c4c3[C@@]1(CCN2CC1CC1)[C@H]5O4 [NORBINALTORPHIMINE] | > 320 |  |  |  |  | 
C=CCN1C[C@H](C)N([C@H](c2ccc(C(=O)N(CC)CC)cc2)c2cccc(OC)c2)C[C@H]1C [SNC-80] | > 320 |  |  |  |  | 
H-AFEVVG-NH2 | > 320 |  |  |  |  | 
